Data published in patent US20190167647A1, “PHARMACEUTICAL COMPOSITION FOR STROKE TREATMENT BASED ON AMPK INHIBITION” (INDUSTRY ACADEMY COOPERATION FOUNDATION OF SEJONG UNIVERSITY, priority 2016, published 2019).

What was measured:
neuronal cells = assay: H2O2 neurotoxicity with chelators (LDH secretion); type: cell-based
Procedure: There is reported that intracellular free zinc is increased in a neurotoxicity mechanism due to hydrogen peroxide, wherein hydrogen peroxide toxicity is reduced when the cells are treated using the zinc chelator. […] Therefore, in order to monitor whether effects of the drug #28 are associated with a reduction of zinc in the above case, the neuronal cells were treated with hydrogen peroxide (H2O2), a zinc chelator such as TPEN or CaEDTA and a calcium chelator such as ZnEDTA, followed by monitoring neurotoxicity (LDH secretion).

[1] = system: cultured cerebral cortex neurons of a mouse; assay: H2O2-induced neurotoxicity, propidium iodide staining; type: cell-based; conditions: H2O2 100 μM 4.5 hours; 10 μM drug; excepted drugs = no significant inhibition
Procedure: More particularly, the neurotoxicity model for observation of neurotoxicity inhibitory effects includes excitotoxicity, oxidative damage, etc. which are classified as a cause mechanism of stroke. NMDA (N-methyl-D-aspartate) was used as the excitotoxicity model while the oxidative model used herein was a hydrogen peroxide (H2O2) toxicity model. First, using NMDA (50 μM) or H2O2 (100 μM), the cultured cerebral cortex neurons of a mouse were treated for 1.5 hours and 4.5 hours, respectively, resulting in induction of neurotoxicity. The neurons were further treated with the selected 12 drugs (10 μM) as well as the existing selected drug #28 (20 μM). Then, after staining the neurons with propidium iodide (PI), the stained cells were quantified to determine a degree of cell death.

mouse = conditions: administered to a mouse; cited from earlier work
[2] = biological target: T1, recombinant AMPK (α2/β1/γ1) (Homo sapiens, UniProt P54646); assay: AMPK enzymatic activity assay (CycLex kit); type: biochemical; conditions: 10 μM
T1 construct: purchased CycLex, Japan
T1 sequence (P54646 whole entry): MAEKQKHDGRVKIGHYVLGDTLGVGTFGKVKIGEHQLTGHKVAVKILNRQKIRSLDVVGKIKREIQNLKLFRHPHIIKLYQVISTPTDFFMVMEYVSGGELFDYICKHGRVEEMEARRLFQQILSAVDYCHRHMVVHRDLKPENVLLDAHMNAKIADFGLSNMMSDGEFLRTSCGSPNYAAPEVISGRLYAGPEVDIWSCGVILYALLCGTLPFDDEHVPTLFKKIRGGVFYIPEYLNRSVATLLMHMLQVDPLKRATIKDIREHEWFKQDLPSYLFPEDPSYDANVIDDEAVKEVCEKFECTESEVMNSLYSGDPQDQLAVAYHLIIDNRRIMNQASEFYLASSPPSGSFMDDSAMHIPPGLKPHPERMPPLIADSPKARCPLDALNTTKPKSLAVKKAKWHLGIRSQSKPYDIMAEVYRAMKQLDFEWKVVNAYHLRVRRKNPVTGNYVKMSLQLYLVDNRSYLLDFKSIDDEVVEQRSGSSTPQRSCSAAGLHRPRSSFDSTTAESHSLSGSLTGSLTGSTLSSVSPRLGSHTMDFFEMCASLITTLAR
T1 sequence (Q9Y478 whole entry partner): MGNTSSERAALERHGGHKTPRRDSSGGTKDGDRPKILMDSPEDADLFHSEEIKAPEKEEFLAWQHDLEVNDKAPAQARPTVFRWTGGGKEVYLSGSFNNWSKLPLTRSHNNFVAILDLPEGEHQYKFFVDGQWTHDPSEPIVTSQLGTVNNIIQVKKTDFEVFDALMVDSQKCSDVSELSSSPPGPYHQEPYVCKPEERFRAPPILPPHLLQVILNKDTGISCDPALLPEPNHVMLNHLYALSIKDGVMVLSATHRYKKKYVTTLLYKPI
T1 sequence (P54619 whole entry partner): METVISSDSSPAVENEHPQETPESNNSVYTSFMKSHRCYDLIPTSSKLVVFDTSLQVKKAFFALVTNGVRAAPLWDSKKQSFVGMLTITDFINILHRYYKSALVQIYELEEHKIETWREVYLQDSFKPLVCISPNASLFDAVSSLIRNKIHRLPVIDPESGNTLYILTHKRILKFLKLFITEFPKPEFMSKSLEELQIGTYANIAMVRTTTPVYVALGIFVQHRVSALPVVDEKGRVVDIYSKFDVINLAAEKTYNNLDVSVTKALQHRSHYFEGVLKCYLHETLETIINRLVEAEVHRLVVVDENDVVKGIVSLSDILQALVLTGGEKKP
Procedure: More particularly, AMPK enzymatic activity was measured by an AMPK activity assay kit (CycLex, Japan) and recombinant AMPK (α2/β1/γ1 CycLex, Japan).

[3] = system: cultured cerebral cortex neurons; assay: Zinc neurotoxicity, TUNEL staining and LDH assay; type: cell-based, mouse; conditions: 300 μM ZnCl2 10 min, 10 hours later; 20 μM compound
Procedure: Cerebral cortex neurons of a mouse used in the present invention were extracted from the mouse embryos brain and cultured, followed by further culturing the same using a Dulbecco's modified Eagle's medium (DMEM, Gibco, Grand Island, N.Y., US) containing 5% fetal bovine serum (FBS) and 5% horse serum (HS) under conditions of 95% humidity, 5% CO2 and 37° C. temperature. For activation and differentiation of the above cells, these cells were proliferated at a density of 2×10^4 cells in 24-well tissue culture plate. Further, prior to treatment using zinc and the compounds, the cells were incubated in MEM medium without FBS and HS.
More particularly, the cultured cerebral cortex neurons according to the embodiment of the present invention were treated with 300 μM zinc (ZnCl2) for 10 minutes then removed. 10 hours later, cytotoxicity was observed by TUNEL staining or LDH (Lactate Dehydrogenase). Further, these cells were treated with AMPK inhibitor, that is, 20 μM compound C (+Cpd C, Tocris), followed by observation whether neurotoxicity is reduced or not.

cerebral cortex neurons = assay: Western blot of Bim and caspase-3 after zinc treatment; type: cell-based, mouse; conditions: 300 μM ZnCl2, 20 μM compound
Procedure: More particularly, the cerebral cortex neurons were treated with 300 μM zinc (ZnCl2) for 2, 3, 4, 5 and 6 hours to induce zinc toxicity. From each sample, protein was separated and subjected to Western blot and treatment using 20 μM compound C (+Cpd C) as an AMPK inhibitor, so as to identify a relationship between the zinc toxicity and apoptosis.

[4] = Calcium chelation with Fura-2 dye (test tube); type: physicochemical; conditions: Fura-2 dye, test tube
Procedure: In order to determine whether the above result is obtained by the chelation of Ca^2+ ions other than the drug #28, protective effects of the drug #28 (10 to 60 μM) after treatment using ionomycin, which is a calcium ion permeable carrier (‘calcium ionophore’) directly increasing the intracellular calcium concentration, were under observation. Further, using a Fura-2 dye that is combined with calcium to represent fluorescence, it was monitored whether the drug #28 is combined with calcium on a test tube and represents chelating effects.

[5] = Free zinc concentration by fluorescent dye (Newport green DCF, FluoZin-3); type: physicochemical; conditions: 20 μM; Newport green DCF or FluoZin-3
Procedure: Further, in conjunction with clioquinol (20 μM) or the drug #28 (20 μM), a zinc fluorescent dye, i.e., Newport green DCF (0.5 μM, Kd(Zn)=1 uM) or FluoZin-3 (0.5 μM, Kd(Zn)=15 nM) was used for measurement of free zinc concentration.

mouse cortical cultures [6] = assay: TPEN-induced caspase-3 activity; type: cell-based
Excerpt: (§1) Generally, application of TPEN as a zinc chelator easily flowing into the cells causes a cell death in the form of typical apoptosis (EDTA is not introduced into the cells). When adding zinc to the above treatment, intracellular free zinc ions are retained thus to reduce neuronal death and further reduce caspase-3 protease activity in the apoptosis process. Under expectation such that: the drug #28 and clioquinol may not only serve as a chelator but also play a role of an ion permeable carrier; these drugs flow into cells as combined with zinc; thereafter, the zinc is removed from the drug because a concentration of free zinc in the cytoplasm is too low; therefore, the concentration of free zinc in the cytoplasm is increased thus to reduce neurotoxicity due to TPEN, caspase-3 activity and neurotoxicity (LDH secretion) were under observation after treatment using zinc, the drug #28 and clioquinol.

mouse cortical cultures [7] = assay: TPEN-induced neurotoxicity (LDH secretion); type: cell-based
Excerpt: as §1

[8] = system: cultured cerebral cortex neurons of a mouse; assay: Zinc ion permeable carrier test, ZinPyr-1; type: cell-based; conditions: #28 0.05 μM, clioquinol 0.5 μM
Procedure: ZinPyr-1 is a fluorescent dye which has a lower Kd value than that of FluoZin-3 and is used to measure a change in a zinc concentration even at a lower concentration. Whether the drug #28 of the present invention can act as an ion permeable carrier was under observation using ZinPyr-1. More particularly, the cultured cerebral cortex neurons of a mouse were treated with ZinPyr-1 then treated with the drug #28 (0.05 μM) and clioquinol (0.5 μM) in a typically used neuronal cell culture medium, so as to determine a change in zinc ion concentrations in the neurons. Also, a non-treatment group was used as a control group.
Therefore, after adding a further 0.5 μM concentration of zinc to the cell culture medium, a change in zinc concentration in the cells was under observation.

In the case of `O=C([O-])CN(CCN(CC(=O)[O-])CC(=O)[O-])CC(=O)[O-].[Ca+2].[Na+].[Na+]` [CaEDTA], the “neurotoxicity caused by hydrogen peroxide” value (from here on “neurotoxicity caused”) (neuronal cells) is reported as “significantly reduced toxicity”.

With `Cc1ccccc1NC1=NC(=O)/C(=C/c2c[nH]c3ccccc23)S1` [Compound 4B03, (5Z)-5-(1H-Indol-3-ylmethylene)-2-[(2-methylphenyl)amino]-1,3-thiazol-4(5H)-one] the “inhibition of H2O2-induced neurotoxicity” value [1] was “other than two drugs”.

In the case of `Cc1cccc(NC2=NC(=O)/C(=C/c3c[nH]c4ccccc34)S2)c1C` [Compound 4B04, (5Z)-2-[(2,3-Dimethylphenyl)amino]-5-(1H-indol-3-ylmethylene)-1,3-thiazol-4(5H)-one], the “inhibition of H2O2-induced neurotoxicity” value [1] is reported as “other than two drugs”.

In the case of `C=C1C(=O)OC(CCCCCCCC)C1C(=O)O` (stereo not drawn) [Compound C75], the “size of infarcted part” value (mouse) is given as “significantly reduces a size of an infracted part”.

In the case of `c1cc(-c2cnn3cc(-c4ccc(OCCN5CCCCC5)cc4)cnc23)ccn1` [Compound C], the “Mean (% remaining activity)” value [2] is reported as 5.3000%, the “zinc neurotoxicity (TUNEL staining and LDH assay)” value [3] is reported as “significantly reduced” and the “increase in Bim caused by zinc toxicity” value (cerebral cortex neurons) is reported as “reduce”. For the same molecule, the “increase in caspase-3 activity caused by zinc toxicity” value (cerebral cortex neurons) was “reduce” and the “size of infarcted part” value (mouse) was “significantly reduces a size of an infracted part”.

For `O=C(O)CN(CCN(CC(=O)O)CC(=O)O)CC(=O)O` [EDTA, reference compound], the “chelating effects for calcium” value [4] was “good chelating effects at a low calcium concentration”.

In the case of `c1ccc(CN(CCN(Cc2ccccn2)Cc2ccccn2)Cc2ccccn2)nc1` [TPEN, N,N,N′,N′-tetrakis (2-pyridylmethyl) ethylenediamine], the “neurotoxicity caused” value (neuronal cells) is reported as “reduced neurotoxicity caused by hydrogen peroxide”.

With `O=C([O-])CN(CCN(CC(=O)O)CC(=O)O)CC(=O)[O-].[Zn+2]` [ZnEDTA] the “neurotoxicity caused” value (neuronal cells) was “did not inhibit toxicity”.

With `Oc1c(I)cc(Cl)c2cccnc12` [clioquinol, reference compound] the free zinc ions [5] was “reduce free zinc ions”, the “caspase-3 activity induced by TPEN” value (mouse cortical cultures [6]) was “significantly reduce caspase-3 activity induced by TPEN” and the “neurotoxicity by TPEN” value (mouse cortical cultures [7]) was “decrease neurotoxicity by TPEN”. The “increase of zinc in neurons, general culture conditions” value [8] was “an increase of zinc by clioquinol was observed”.

In the case of `[Cl-].[Cl-].[Zn+2]` [zinc], the “caspase-3 activity induced by TPEN” value (mouse cortical cultures [6]) is reported as “significantly reduce caspase-3 activity induced by TPEN” and the “neurotoxicity by TPEN” value (mouse cortical cultures [7]) is reported as “decrease neurotoxicity by TPEN”.
